One block for each compound: values may come before it.
Columns and labels:
Assay type in all cases: physicochemical
[1] = repose angle measured by powder tester PT-E (fluidity of anhydrous D-allose crystals); conditions: for Degree of fluidity: drying tests of Table 6, evaluated from repose angle according to Table 4
Procedure: The fluidity of the anhydrous D-allose crystals obtained by drying the hydrous crystals obtained in each of Tests Nos. 1 to 12 with an evaporator (30° C., 20 hPa (abs), about 2 hours) as described above was evaluated by the repose angle measured by a powder tester PT-E (manufactured by Hosokawa Micron Corporation). Specifically, a sample was dropped and deposited on a disk, and the inclination angle was measured from three directions to obtain an average value. From the average value, the degree of fluidity was evaluated according to Table 1 in the Japanese Pharmacopoeia, 17th edition, Reference Information G2 physical property-related “Powder Fluidity” (same as the so-called Carr's fluidity index table, shown as Table 4).
(§1) In order to measure the water content in the crystals obtained by each of the drying methods, drying under reduced pressure under conditions at 70° C. for 18 hours was performed to calculate the water content in the crystals from the weight loss through the drying under reduced pressure. The repose angle was measured by the method described above to determine the degree of fluidity. The yield rate was calculated by the following expression. Yield rate (%)=(D/C)×100 [Expression 4]

[2] = water content in crystals from weight loss on drying under reduced pressure at 70° C. for 18 hours; conditions: hydrous D-allose crystals (purity 99.9%, water content 17.7%) dried under the named drying conditions
Procedure: as §1

[3] = particle size distribution by laser diffraction (Mastersizer 3000, dry dispersion unit Aero S); conditions: average of 5 measurements, dispersion pressure 1.0 bar
Text: The melting point (Tm) in the DSC refers to the melting start temperature of the endothermic peak obtained by DSC measurement (temperature at the extrapolated intersection of the base line and the maximum slope line of the endothermic peak), and the melting enthalpy (ΔH) refers to the area of the endothermic peak (ASTM D3418-15, Standard Test Method for Transition Temperatures and Enthalpies of Fusion and Crystallization of Polymers by Differential Scanning calorimetry). Further, in the present invention, the average particle size refers to the volume-based average particle size d[4,3], which is usually measured with a laser diffraction particle size distribution analyzer.
Next, the particle size distribution of the anhydrous D-allose crystals of the present invention was examined. Specifically, the anhydrous D-allose crystals obtained in the previous Test Nos. 1 to 5, 7 to 10 and 12, were subjected to measurement of particle size distribution under the measurement conditions shown in Table 7 using “Mastersizer 3000” and a “dry dispersion unit Aero S” manufactured by Malvern Instruments. More specifically, the measurement was repeated 5 times, and the average value of the 5 times measurements was used. No great variability was seen among the 5 times measurement values. The particle size distribution was expressed on a volume basis, and the volume-based average particle size d[4,3] and standard deviation σ were recorded. Also, the coefficient of variation CV=σ/d[4,3] was calculated in order to relatively evaluate the variation in the particle size distribution.

[4] = aspect ratio of crystals from microscopic picture (Digital microscope VHX-5000, 50x)
Text: The “anhydrous D-allose crystals” of the present invention have an extremely large average particle size as described above and are not in a fine needle form, having a characteristic aspect ratio of the crystal. In the present invention, the aspect ratio refers to the ratio of the long diameter to the short diameter of a crystal (short diameter: minimum length of lines passing through the center of gravity of the plane shape of a crystal, long diameter: maximum length of a crystal measured orthogonal to the short diameter). In the present specification, the aspect ratio in a numerical range from A to B (A and B: arbitrary numbers) means that all of the aspect ratios of a specified number (preferably at least 10, for example 10) of crystal particles randomly selected are within the numerical range. Example of random selection of crystal particles includes a method comprising taking a microscopic picture of crystals at 20× to 50× magnification and, from the crystals on the diagonal line drawn from the upper left to the lower right of the microscopic picture taken, selecting 10 crystals with a full body shown in order from the upper left on the diagonal line. Specifically, the aspect ratio is preferably 1.0 to 10.0, more preferably 2.0 to 8.0, still more preferably 2.0 to 7.0. Next, the aspect ratio of the anhydrous D-allose crystals of the present invention was examined. Specifically, a microscopic picture of each of the anhydrous D-allose crystals obtained in the previous Test Nos. 1 to 5, 7 to 10 and 12 were taken using “Digital microscope VHX-5000” manufactured by KEYENCE Corporation (50×magnification). Among the crystals on the diagonal line drawn from the upper left to the lower right of the microscopic picture taken, 10 crystals with a full picture shown were selected in order from the upper left and then the long diameter and the short diameter of each crystal were measured for calculation of the aspect ratio (Long diameter/Short diameter, wherein short diameter refers to minimum length of lines passing through the center of gravity of the plane shape of a crystal, and long diameter refers to maximum length of a crystal measured orthogonal to the short diameter). The minimum value of the aspect ratio was 1.1 and the maximum value was 9.6 (Table 9).

[5] = drying tests of Table 6, crystals after the named drying conditions

Compound: O=C[C@H](O)[C@H](O)[C@H](O)[C@H](O)CO [Conductive heat transfer drying at 70° C.] [D-allose]
Repose angle (degrees) [1, 5]: 44 degrees | Degree of fluidity [1]: Passable (41~45) | Water content (%) after drying [2]: 0.105%

Compound: O=C[C@H](O)[C@H](O)[C@H](O)[C@H](O)CO [Conductive heat transfer drying at 60° C.] [D-allose]
Repose angle (degrees) [1, 5]: 41.7 degrees | Degree of fluidity [1]: Passable (41~45) | Water content (%) after drying [2]: 0.18%

Compound: O=C[C@H](O)[C@H](O)[C@H](O)[C@H](O)CO [Convection heat transfer drying at 40° C., Air supply: 3900 ] [D-allose]
Repose angle (degrees) [1, 5]: 41.3 degrees | Degree of fluidity [1]: Passable (41~45) | Water content (%) after drying [2]: 0.14%

Compound: O=C[C@H](O)[C@H](O)[C@H](O)[C@H](O)CO [Test No. 12, D-allose]
Repose angle (degrees) ([1]; anhydrous crystals of Test Nos. 1 to 12, hydrous crystals dried with evaporator (30° C., 20 hPa (abs), about 2 hours), average of three directions, listed as 12): 41.3 degrees | d [4, 3] (volume-based average particle size) ([3]; listed as 12): 333 μm | Aspect ratio (Long diameter/Short diameter) ([4]; crystal ① of 10 selected, listed as 12): 3.1 | Aspect ratio (Long diameter/Short diameter) ([4]; crystal ② of 10 selected, listed as 12): 3.3 | Aspect ratio (Long diameter/Short diameter) ([4]; crystal ③ of 10 selected, listed as 12): 4.2 | Aspect ratio (Long diameter/Short diameter) ([4]; crystal ④ of 10 selected, listed as 12): 3.8 | Aspect ratio (Long diameter/Short diameter) ([4]; crystal ⑤ of 10 selected, listed as 12): 3.6 | Aspect ratio (Long diameter/Short diameter) ([4]; crystal ⑥ of 10 selected, listed as 12): 4.4 | Aspect ratio (Long diameter/Short diameter) ([4]; crystal ⑦ of 10 selected, listed as 12): 4.7 | Aspect ratio (Long diameter/Short diameter) ([4]; crystal ⑧ of 10 selected, listed as 12): 3.7 | Aspect ratio (Long diameter/Short diameter) ([4]; crystal ⑨ of 10 selected, listed as 12): 3.7 | Aspect ratio (Long diameter/Short diameter) ([4]; crystal ⑩ of 10 selected, listed as 12): 1.3

Compound: O=C[C@H](O)[C@H](O)[C@H](O)[C@H](O)CO [Conductive heat transfer drying at 40° C.] [D-allose]
Repose angle (degrees) [1, 5]: 41.3 degrees | Degree of fluidity [1]: Passable (41~45) | Water content (%) after drying [2]: 0.13%

Compound: O=C[C@H](O)[C@H](O)[C@H](O)[C@H](O)CO [Convection heat transfer drying at 40° C., Air supply: 6000 ] [D-allose]
Repose angle (degrees) [1, 5]: 41.7 degrees | Degree of fluidity [1]: Passable (41~45) | Water content (%) after drying [2]: 0.13%

The next lines start with the values.

Repose angle (degrees) ([1]; anhydrous crystals of Test Nos. 1 to 12, hydrous crystals dried with evaporator (30° C., 20 hPa (abs), about 2 hours), average of three directions, listed as 3): 42.0 degrees | d [4, 3] (volume-based average particle size) ([3]; listed as 3): 450 μm | Aspect ratio (Long diameter/Short diameter) ([4]; crystal ① of 10 selected, listed as 3): 2.5 | Aspect ratio (Long diameter/Short diameter) ([4]; crystal ② of 10 selected, listed as 3): 5.4 | Aspect ratio (Long diameter/Short diameter) ([4]; crystal ③ of 10 selected, listed as 3): 3.9 | Aspect ratio (Long diameter/Short diameter) ([4]; crystal ④ of 10 selected, listed as 3): 6.2 | Aspect ratio (Long diameter/Short diameter) ([4]; crystal ⑤ of 10 selected, listed as 3): 4.5 | Aspect ratio (Long diameter/Short diameter) ([4]; crystal ⑥ of 10 selected, listed as 3): 4.3 | Aspect ratio (Long diameter/Short diameter) ([4]; crystal ⑦ of 10 selected, listed as 3): 3.0 | Aspect ratio (Long diameter/Short diameter) ([4]; crystal ⑧ of 10 selected, listed as 3): 4.7 | Aspect ratio (Long diameter/Short diameter) ([4]; crystal ⑨ of 10 selected, listed as 3): 6.1 | Aspect ratio (Long diameter/Short diameter) ([4]; crystal ⑩ of 10 selected, listed as 3): 1.5
Compound: O=C[C@H](O)[C@H](O)[C@H](O)[C@H](O)CO [Test No. 3, D-allose]

Repose angle (degrees) ([1]; anhydrous crystals of Test Nos. 1 to 12, hydrous crystals dried with evaporator (30° C., 20 hPa (abs), about 2 hours), average of three directions, listed as 5): 45.7 degrees | d [4, 3] (volume-based average particle size) ([3]; listed as 5): 498 μm | Aspect ratio (Long diameter/Short diameter) ([4]; crystal ① of 10 selected, listed as 5): 1.1 | Aspect ratio (Long diameter/Short diameter) ([4]; crystal ② of 10 selected, listed as 5): 2.7 | Aspect ratio (Long diameter/Short diameter) ([4]; crystal ③ of 10 selected, listed as 5): 3.2 | Aspect ratio (Long diameter/Short diameter) ([4]; crystal ④ of 10 selected, listed as 5): 2.9 | Aspect ratio (Long diameter/Short diameter) ([4]; crystal ⑤ of 10 selected, listed as 5): 4.7 | Aspect ratio (Long diameter/Short diameter) ([4]; crystal ⑥ of 10 selected, listed as 5): 3.0 | Aspect ratio (Long diameter/Short diameter) ([4]; crystal ⑦ of 10 selected, listed as 5): 4.9 | Aspect ratio (Long diameter/Short diameter) ([4]; crystal ⑧ of 10 selected, listed as 5): 4.1 | Aspect ratio (Long diameter/Short diameter) ([4]; crystal ⑨ of 10 selected, listed as 5): 1.6 | Aspect ratio (Long diameter/Short diameter) ([4]; crystal ⑩ of 10 selected, listed as 5): 3.8
Compound: O=C[C@H](O)[C@H](O)[C@H](O)[C@H](O)CO [Test No. 5, D-allose]

Repose angle (degrees) ([1]; anhydrous crystals of Test Nos. 1 to 12, hydrous crystals dried with evaporator (30° C., 20 hPa (abs), about 2 hours), average of three directions, listed as 10): 41.3 degrees | d [4, 3] (volume-based average particle size) ([3]; listed as 10): 492 μm | Aspect ratio (Long diameter/Short diameter) ([4]; crystal ① of 10 selected, listed as 10): 1.6 | Aspect ratio (Long diameter/Short diameter) ([4]; crystal ② of 10 selected, listed as 10): 3.9 | Aspect ratio (Long diameter/Short diameter) ([4]; crystal ③ of 10 selected, listed as 10): 5.6 | Aspect ratio (Long diameter/Short diameter) ([4]; crystal ④ of 10 selected, listed as 10): 2.1 | Aspect ratio (Long diameter/Short diameter) ([4]; crystal ⑤ of 10 selected, listed as 10): 4.0 | Aspect ratio (Long diameter/Short diameter) ([4]; crystal ⑥ of 10 selected, listed as 10): 9.6 | Aspect ratio (Long diameter/Short diameter) ([4]; crystal ⑦ of 10 selected, listed as 10): 2.3 | Aspect ratio (Long diameter/Short diameter) ([4]; crystal ⑧ of 10 selected, listed as 10): 3.3 | Aspect ratio (Long diameter/Short diameter) ([4]; crystal ⑨ of 10 selected, listed as 10): 4.6 | Aspect ratio (Long diameter/Short diameter) ([4]; crystal ⑩ of 10 selected, listed as 10): 5.4
Compound: O=C[C@H](O)[C@H](O)[C@H](O)[C@H](O)CO [Test No. 10, D-allose]

Repose angle (degrees) [1, 5]: 42 degrees | Degree of fluidity [1]: Passable (41~45) | Water content (%) after drying [2]: 0.13%
Compound: O=C[C@H](O)[C@H](O)[C@H](O)[C@H](O)CO [Convection heat transfer drying at 50° C., Air supply: 4700 ] [D-allose]

Repose angle (degrees) ([1]; anhydrous crystals of Test Nos. 1 to 12, hydrous crystals dried with evaporator (30° C., 20 hPa (abs), about 2 hours), average of three directions, listed as 9): 41.0 degrees | d [4, 3] (volume-based average particle size) ([3]; listed as 9): 600 μm | Aspect ratio (Long diameter/Short diameter) ([4]; crystal ① of 10 selected, listed as 9): 6.2 | Aspect ratio (Long diameter/Short diameter) ([4]; crystal ② of 10 selected, listed as 9): 4.3 | Aspect ratio (Long diameter/Short diameter) ([4]; crystal ③ of 10 selected, listed as 9): 5.7 | Aspect ratio (Long diameter/Short diameter) ([4]; crystal ④ of 10 selected, listed as 9): 3.0 | Aspect ratio (Long diameter/Short diameter) ([4]; crystal ⑤ of 10 selected, listed as 9): 3.5 | Aspect ratio (Long diameter/Short diameter) ([4]; crystal ⑥ of 10 selected, listed as 9): 5.9 | Aspect ratio (Long diameter/Short diameter) ([4]; crystal ⑦ of 10 selected, listed as 9): 4.6 | Aspect ratio (Long diameter/Short diameter) ([4]; crystal ⑧ of 10 selected, listed as 9): 2.6 | Aspect ratio (Long diameter/Short diameter) ([4]; crystal ⑨ of 10 selected, listed as 9): 3.6 | Aspect ratio (Long diameter/Short diameter) ([4]; crystal ⑩ of 10 selected, listed as 9): 1.9
Compound: O=C[C@H](O)[C@H](O)[C@H](O)[C@H](O)CO [Test No. 9, D-allose]

From US12122802B2, “D-allose crystal and production method thereof” (MATSUTANI CHEMICAL INDUSTRY CO., LTD., priority 2019, dated 2024)
